Measurements: US10858344B2, “Hydantoin containing deoxyuridine triphosphatase inhibitors” (CV6 Therapeutics (NI) Limited, priority 2016, dated 2020)

Columns and labels:
[1] = test system: colorectal (HCT116), breast (MCF-7) and non-small cell lung (H1299, A549, H358 and H460) cell line models; experiment: Colony forming assay; assay type: cell-based; conditions: FUdR between 0.5 and 2.5 μmol/L; all cell lines evaluated
Experimental: Colony forming assay showing the ability of colon (SW620, HCT116), non-small cell lung (A549, H460, H1299 and H358) and breast (MCF7) cancer cells to survive and proliferate following transient 24 hour exposure to test compounds, FUdR and combinations are determined. Specifically, cells are seeded at densities between 50 and 100 cells/well in 24-well plates. Twenty-four hours later, cells are treated with increasing concentrations of a rtest compound, a fixed dose of FUdR and combinations of these. After 24 hours, drug is removed, cells are rinsed and allowed to outgrow for 10-14 days. At the conclusion of the outgrowth, cells are fixed in 60% ice cold methanol and stained with 0.1% crystal violet, scanned and counted. Data is presented as percentage of untreated controls (mean±SD). Fraction affected and combination indexes are calculated according to the method of Chou and Talalay where <1 is indicative of a synergistic drug interaction.
Colony forming assays are performed to evaluate the effectiveness of test compounds alone and in combination with the fluoropyrimidine thymidylate synthase (TS) inhibitor fluorodeoxyuridine (FUdR) at reducing cancer cell viability in colorectal (HCT116), breast (MCF-7) and non-small cell lung (H1299, A549, H358 and H460) cell line models. […]

[2] = test system: colorectal (HCT116 and SW620) cell line models; experiment: MTS growth inhibition assay; assay type: cell-based; conditions: 5-FU between 0 and 100 μmol/L; both colorectal cancer cell lines
Experimental: The Cell Titer AQueous MTS assay (Promega) is carried out according to the manufacturers guidelines. […] The combination effect is determined by the combination index (CI) method utilizing Calcusyn software (Biosoft, Ferguson, Mo.). Fraction affected (FA) is calculated from the percent growth inhibition: FA=[…]. CI values <1, synergism; 1-1.2, additive and >1.2, antagonism.
MTS growth inhibition assays are performed to evaluate the effectiveness of the test compounds alone and in combination with the fluoropyrimidine thymidylate synthase (TS) inhibitor 5-fluorouracil (5-FU) at inhibiting the growth of colorectal (HCT116 and SW620) cell line models. […] Simultaneous treatment with increasing concentrations of 5-FU and a test compound at fixed concentrations of 25 μmol/L is determined.

[3] = molecular target: recombinant human deoxyuridine nucleotidohydrolase (dUTPase) (Homo sapiens (Human), UniProt P33316); experiment: fluorescence-based dUTPase inhibition assay; assay type: biochemical; conditions: for % relative inhibition vs. positive control: mean over three concentrations, typically 100, 50 and 25 μmol/L, compared to in-run positive control
Chain of recombinant human deoxyuridine nucleotidohydrolase (dUTPase) (P33316 other isoform, or with tags, fused parts or gaps): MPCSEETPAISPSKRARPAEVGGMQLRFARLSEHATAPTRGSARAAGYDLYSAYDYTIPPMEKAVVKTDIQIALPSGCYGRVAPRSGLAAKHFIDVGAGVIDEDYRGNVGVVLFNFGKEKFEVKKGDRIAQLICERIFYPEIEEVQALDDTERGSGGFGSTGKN
Excerpt: Recombinant human deoxyuridine nucleotidohydrolase (dUTPase) is expressed and purified as described in Ladner R D, Carr S A, Huddleston M J, McNulty D E, Caradonna S J. J Biol Chem. 1996 Mar. 29; 271(13):7752-7. All drugs stocks are aliquoted and diluted as appropriate prior to use. The oligonucelotide primer, templates and fluorophore- and quencher-labeled detection probes are synthesized by Integrated DNA Technologies (Coralville, Iowa), subjected to polyacrylamide gel electrophoresis purification and reconstituted in Omnipur sterile nuclease-free water (EMD Chemicals USA, Gibbstown N.J.) at a stock concentration of 100 μmol/L. The two non-emissive (dark) quenching molecules incorporated into the detection probes include the Iowa black fluorescein quencher (IBFQ; absorption max 531 nm) and ZEN (non-abbreviation; absorption max 532 nm). The fluorescent label utilized is 6-FAM (5′-carboxyfluorescein; excitation max.=494 nm, emission max.=520 nm). Probes are further diluted to a working stock of 10 μmol/L and aliquoted to avoid repeated freeze/thaw cycles. AmpliTaq Gold DNA Polymerase, GeneAmp 10×PCR Buffer 2, MgCl2 and MicroAmp Optical 96-well Reaction Plates are purchased from Applied Biosystems (Carlsbad, Calif.). dNTPs are purchased individually at stock concentrations of 100 mmol/L from New England Biolabs at HPLC-certified >99% purity (Ipswich, Mass.).
Reaction mixtures contained primer, probe and template at an equimolar final concentration of 0.4 μmol/L. Magnesium chloride (MgCl2) is included at a final concentration of 2 mmol/L. Non-limiting dNTPs are included in the reaction mix in excess at a final concentration of 100 μmol/L (dUTP/dTTP is excluded). AmpliTaq Gold DNA polymerase is added at 0.875 U/reaction, 2.5 μl of 10×PCR buffer 2 added and nuclease-free ddH2O added to a final reaction volume of 25 μl. For dUTP inhibition analysis, the volume of ddH2O is further modified to accommodate an additional 1 μl of dUTPase (10 ng/μl) and 1 μl of inhibitor or DMSO control. Thermal profiling and fluorescence detection is performed using a customized thermal program on board a Roche Lightcycler LC480 Instrument II. For analysis of dNTPs, the thermal profile consisted of an 8 min 37° C. step followed by a 10 min 95° C. step to ‘hot-start’ the Taq polymerase and a primer extension time of up to 30 min at 60° C. Raw fluorescence spectra for 6-FAM is measured at specified time intervals to follow assay progression on board a Roche LightCycler 480 Software Version 1.5 and exported and analyzed in Microsoft Excel (Microsoft, Redmond Wash.) and Prism (GraphPad Software, La Jolla Calif.). Fluorescence values for blank reactions (limiting dNTP omitted) are subtracted to give normalized fluorescence units (NFU) to account for background fluorescence.
Test compounds are screened in a fluorescence-based assay. The assay employs a DNA polymerase-based approach utilizing an oligonucleotide template with 3 distinct regions: a 3′ primer binding region, a mid-template dUTP/thymidine triphosphate (TTP) detection region and a 5′ 6-[…] (FAM)-labeled probe binding region that incorporates a black hole quenching moiety. During the reaction, the probe and primer hybridize to the oligonucleotide template to form the template:primer:probe complex. When Taq polymerase binds to the primer in the TPP complex and dUTP is present, successful extension of the nascent strand occurs and the inherent 5′ to 3′ exonuclease activity of Taq polymerase cleaves and displaces the 6-FAM-labeled probe in a 5′ to 3′ direction, releasing the 6-FAM fluorophore from its proximity to the three quenchers. This displacement effectively disrupts the Förster resonance energy transfer (FRET) and the resulting fluorescence detected upon excitation is directly proportional to the amount of the dUTP available in the assay for incorporation. […]

SMILES | IC50 [3] | % relative inhibition vs. positive control [3] | other results
O=c1[nH]c(=O)n([C@H]2C[C@H](O)[C@@H](CO)O2)cc1F [FUdR, fluorodeoxyuridine] |  |  | colonies formed [1]: dose-dependent decreases in colonies formed
O=c1[nH]cc(F)c(=O)[nH]1 [5-FU, 5-fluorouracil] |  |  | growth inhibition [2]: dose-dependent increases in growth inhibition
C[C@@H](NS(=O)(=O)CCCCCN1CC(=O)NC1=O)c1ccc(F)c(OCC2CCC2)c1 [Example 88, (R)—N-(1-(3-(cyclobutylmethoxy)-4-fluorophenyl)ethyl)-5-(2,4-dioxoimidazolidin-1-yl)pentane-1-sulfonamide] | 0.8 µM | 93% | 
C[C@@H](NS(=O)(=O)CCCCCN1CC(=O)NC1=O)c1ccc(F)c(OCC2CCOCC2)c1 [Example 100, (R)-5-(2,4-dioxoimidazolidin-1-yl)-N-(1-(4-fluoro-3-((tetrahydro-2H-pyran-4-yl)methoxy)phenyl)ethyl) pentane-1-sulfonamide] | 14 µM | 5% | 
C[C@@H](NS(=O)(=O)CCCCCN1CC(=O)NC1=O)c1ccc(F)c(OCC(=O)O)c1 [Example 101, (R)-2-(5-(1-((5-(2,4-dioxoimidazolidin-1-yl)pentyl)sulfonamido)ethyl)-2-fluorophenoxy)acetic acid] | 20 µM | 4% | 
C[C@H]1C(=O)NC(=O)N1C/C=C/CCS(=O)(=O)NC1(c2ccc(F)c(OCC(C)(C)O)c2)CC1 [compound 122, (S,E)-N-(1-(4-fluoro-3-(2-hydroxy-2-methylpropoxy)phenyl)cyclopropyl)-5-(5-methyl-2,4-dioxoimidazolidin-1-yl)pent-3-ene-1-sulfonamide] |  | 40% | 
O=C1CN(CCCCCCNS(=O)(=O)c2cccc(OCC3CC3)c2)C(=O)N1 [Example 80, 3-(cyclopropylmethoxy)-N-(6-(2,4-dioxoimidazolidin-1-yl)hexyl)benzenesulfonamide] |  | 151% | 
C[C@H]1C(=O)NC(=O)N1COCCCS(=O)(=O)NC1(c2ccc(F)c(OCC3CC3)c2)CC1 [compound 124, (S)—N-(1-(3-(cyclopropylmethoxy)-4-fluorophenyl)cyclopropyl)-3-((5-methyl-2,4-dioxoimidazolidin-1-yl)methoxy)propane-1-sulfonamide] |  | 153% | 
CC1(C)C(=O)NC(=O)N1C/C=C/CCS(=O)(=O)NC1(c2ccc(F)c(OCC3CC3)c2)CC1 [119a, (E)-N-(1-(3-(cyclopropylmethoxy)-4-fluorophenyl)cyclopropyl)-5-(5,5-dimethyl-2,4-dioxoimidazolidin-1-yl)pent-3-ene-1-sulfonamide] |  | 10% | 
O=C1CN(C/C=C/CCCNS(=O)(=O)c2cccc(OCC3CC3)c2)C(=O)N1 [Example 79, (E)-3-(cyclopropylmethoxy)-N-(6-(2,4-dioxoimidazolidin-1-yl)hex-4-en-1-yl)benzenesulfonamide] |  | 139% | 
